Source: patent US10800770B1, “Chroman derivatives having estrogen receptor degradation activity and uses thereof” (ACCUTAR BIOTECHNOLOGY INC., priority 2019, dated 2020)

The compounds below were run against T1, ERα (Homo sapiens, UniProt P03372) (assay: ERα degradative activity in T47D cells (Western blot, 6 hours after administration)). Conditions: T47D cell line, ERα degradation.
T1 construct: endogenous in cells; host or cells: T47D
T1 sequence (P03372 1-595): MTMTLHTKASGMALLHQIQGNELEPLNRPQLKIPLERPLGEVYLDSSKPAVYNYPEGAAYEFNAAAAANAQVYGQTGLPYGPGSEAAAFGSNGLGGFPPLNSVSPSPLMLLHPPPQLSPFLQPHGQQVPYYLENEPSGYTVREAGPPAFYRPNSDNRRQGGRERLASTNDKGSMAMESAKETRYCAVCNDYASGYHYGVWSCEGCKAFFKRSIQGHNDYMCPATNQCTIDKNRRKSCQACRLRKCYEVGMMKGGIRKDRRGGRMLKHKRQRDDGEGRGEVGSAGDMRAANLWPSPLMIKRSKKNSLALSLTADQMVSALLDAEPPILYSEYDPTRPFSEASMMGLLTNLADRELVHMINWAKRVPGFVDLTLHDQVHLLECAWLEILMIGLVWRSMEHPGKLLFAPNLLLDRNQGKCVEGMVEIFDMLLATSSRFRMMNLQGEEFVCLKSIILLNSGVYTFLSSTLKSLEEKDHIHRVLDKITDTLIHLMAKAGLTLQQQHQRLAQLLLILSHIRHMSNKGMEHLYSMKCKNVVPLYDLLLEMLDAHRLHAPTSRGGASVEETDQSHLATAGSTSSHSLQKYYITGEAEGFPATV
Assay type: cell-based
Method: T47D cells were plated in 24-well plates at 1.5×10^5 cells/well in the RPMI growth medium containing 10% FBS and 1× Penicillin Streptomycin. MCF7 cells were plated in 24-well plates at 1.5×10^5 cells/well in the DMEM growth medium containing 10% FBS and 1× Penicillin Streptomycin. CAMA1 cells were plated in 24-well plates at 2×10^5 cells/well in the RPMI growth medium containing 20% FBS and 1× Penicillin Streptomycin. They were then incubated at 37° C. overnight. The following day, the test compound was administered to the cells by using 1000× compound stock solution prepared in DMSO at various concentrations. After administration of the compound, the cells were then incubated at 37° C. for 6 hours.
Upon completion, the cells were washed with PBS and protein was collected in Laemmli sample buffer (1×; VWR International). Proteins in cell lysate were separated by SDS-PAGE and transferred to Odyssey nitrocellulose membranes (Licor) with Iblot® dry blotting transfer system (ThermoFisher). Nonspecific binding was blocked by incubating membranes with Intercept Blocking Buffer (Licor) for 1 hour at room temperature with gentle shaking. The membranes were then incubated overnight at 4° C. with Primary antibodies rabbit anti-ER (Cell Signaling, 8644) and mouse anti-GAPDH (1:5,000, Santa Cruz Biotechnology, sc-47724) diluted in Intercept Blocking Buffer containing 0.1% Tween 20. After washing 3 times with TBS-T, the membranes were incubated with IRDye® 800CW goat anti-mouse IgG (1:20,000, Licor) or IRDye® 800CW goat anti-rabbit IgG (1:20,000, Licor) for 1 hour. After TBS-T washes, membranes were rinsed in TBS and scanned on Odyssey® CLx Imaging System (Licor). The bands were quantified using Image Studio™ Software (Licor).

Question: O=C1CC[C@H](N2Cc3cc(N4CCN(CC5CCN(c6ccc([C@@H]7c8ccc(O)cc8OCC7c7ccc(F)c(F)c7)cc6F)CC5)CC4)ccc3C2=O)C(=O)N1 (relative stereo) [Compound 84, cis-(S)-3-(5-(4-((1-(4-(3-(3,4-difluorophenyl)-7-hydroxychroman-4-yl)-2-fluoro-phenyl)piperidin-4-yl)methyl)piperazin-1-yl)-1-oxoisoindolin-2-yl)piperidine-2,6-dione] was tested. Which DC50 did it give?
Answer: The DC50 was 9.3 nM.

Question: With Cc1cc([C@H]2COc3cc(O)ccc3[C@H]2c2ccc(N3CCC(CN4CCN(c5ccc6c(c5)CN([C@H]5CCC(=O)NC5=O)C6=O)CC4)CC3)c(F)c2)ccc1F [Compound 60, cis-(S)-3-(5-(4-((1-(2-fluoro-4-(3-(4-fluoro-3-methylphenyl)-7-hydroxychroman-4-yl)phenyl)piperidin-4-yl)methyl)piperazin-1-yl)-1-oxoisoindolin-2-yl)piperidine-2,6-dione] as the compound, how does the DC50 read?
Answer: The DC50 was 6.5 nM.

Question: For O=C1CC[C@H](N2C(=O)c3ccc(N4CCN(CC5CCN(c6ccc([C@@H]7c8ccc(O)cc8OCC7c7ccccc7)cc6F)CC5)CC4)cc3C2=O)C(=O)N1 (stereo in doubt) [Compound 87, cis-2-(2,6-dioxo-piperidin-3-yl)-5-(4-((1-(2-fluoro-4-(7-hydroxy-3-phenylchroman-4-yl)phenyl)piperidin-4-yl)methyl)piperazin-1-yl)isoindoline-1,3-dione], which DC50 is on record?
Answer: The DC50 was 12.6 nM.

Question: For COc1ccc(C2COc3cc(O)ccc3[C@H]2c2ccc(N3CCC(CN4CCN(c5ccc6c(c5)CN([C@H]5CCC(=O)NC5=O)C6=O)CC4)CC3)cc2)cc1 (relative stereo) [Compound 89, cis-(S)-3-(5-(4-((1-(4-(7-hydroxy-3-(4-methoxy-phenyl)chroman-4-yl)phenyl)piperidin-4-yl)methyl)piperazin-1-yl)-1-oxoisoindolin-2-yl)piperidine-2,6-dione], which DC50 is on record?
Answer: Its DC50 is 0.7 nM.

Question: For Cc1cccc([C@H]2COc3cc(O)ccc3C2c2ccc(N3CCC(CN4CCN(c5ccc6c(c5)CN([C@H]5CCC(=O)NC5=O)C6=O)CC4)CC3)c(F)c2)c1 (relative stereo) [Compound 52, cis-(S)-3-(5-(4-((1-(2-fluoro-4-(7-hydroxy-3-(m-tolyl)chroman-4-yl)phenyl)piperidin-4-yl)methyl)piperazin-1-yl)-1-oxoisoindolin-2-yl)piperidine-2,6-dione], which DC50 is on record?
Answer: Its DC50 is 5.6 nM.

Question: For O=C1CC[C@H](N2Cc3cc(N4CCN(CC5CCN(c6ccc([C@@H]7c8ccc(O)cc8OC[C@@H]7c7ccccc7)cc6F)CC5)CC4)c(F)cc3C2=O)C(=O)N1 [Compound 41, (S)-3-(6-fluoro-5-(4-((1-(2-fluoro-4-((3S,4R)-7-hydroxy-3-phenylchroman-4-yl)phenyl)piperidin-4-yl)methyl)piperazin-1-yl)-1-oxoisoindolin-2-yl)piperidine-2,6-dione], which DC50 is on record?
Answer: The DC50 was 4 nM.

Question: How did the DC50 turn out when COc1cccc([C@H]2COc3cc(O)ccc3C2c2ccc(N3CCC(CN4CCN(c5ccc6c(c5)CN([C@H]5CCC(=O)NC5=O)C6=O)CC4)CC3)cc2)c1 (relative stereo) [Compound 56, cis-(S)-3-(5-(4-((1-(4-(7-hydroxy-3-(3-methoxy-phenyl)chroman-4-yl)phenyl)piperidin-4-yl)methyl)piperazin-1-yl)-1-oxoisoindolin-2-yl)piperidine-2,6-dione] was run?
Answer: Its DC50 is 1.7 nM.

Question: Which DC50 does the source give for O=C1CC[C@H](N2Cc3cc(N4CCN(CC5CCN(c6ccc([C@H]7c8ccc(O)cc8OC[C@H]7c7ccccc7)cc6)CC5)CC4)ccc3C2=O)C(=O)N1 [Compound 34, (S)-3-(5-(4-((1-(4-((3R,4S)-7-hydroxy-3-phenylchroman-4-yl)phenyl)piperidin-4-yl)methyl)piperazin-1-yl)-1-oxoisoindolin-2-yl)piperidine-2,6-dione] here?
Answer: The DC50 was greater than 100 nM.

Question: O=C1CC[C@H](N2Cc3cc(N4CCN(CC5CCN(c6ccc([C@@H]7c8ccc(O)cc8OCC7c7ccccc7)cc6F)CC5)CC4)ccc3C2=O)C(=O)N1 (relative stereo) [Compound 85, cis-(S)-3-(5-(4-((1-(2-fluoro-4-(7-hydroxy-3-phenylchroman-4-yl)phenyl)piperidin-4-yl)methyl)piperazin-1-yl)-1-oxoisoindolin-2-yl)piperidine-2,6-dione] was tested. Which DC50 did it give?
Answer: Its DC50 is 3 nM.

Question: O=C1CC[C@H](N2Cc3cc(N4CCN(CC5CCN(c6ccc([C@H]7c8ccc(O)cc8OC[C@H]7c7ccccc7)cc6F)CC5)CC4)ccc3C2=O)C(=O)N1 [Compound 45, (S)-3-(5-(4-((1-(2-fluoro-4-((3R,4S)-7-hydroxy-3-phenylchroman-4-yl)phenyl)piperidin-4-yl)methyl)piperazin-1-yl)-1-oxoisoindolin-2-yl)piperidine-2,6-dione] was tested. Which DC50 did it give?
Answer: The DC50 was greater than 100 nM.

Question: How did the DC50 turn out when O=C1CCC(N2C(=O)c3ccc(N4CCN(CC5CCN(c6ccc(C7c8ccc(O)cc8OC[C@@H]7c7ccccc7)cc6)CC5)CC4)cc3C2=O)C(=O)N1 (stereo in doubt) [Compound 36, cis-2-(2,6-dioxopiperidin-3-yl)-5-(4-((1-(4-(7-hydroxy-3-phenylchroman-4-yl)phenyl)piperidin-4-yl)methyl)piperazin-1-yl)isoindoline-1,3-dione] was run?
Answer: The DC50 was greater than 10 nM.

Question: COc1cccc([C@H]2COc3cc(O)ccc3[C@H]2c2ccc(N3CCC(CN4CCN(c5cc6c(cc5F)C(=O)N([C@H]5CCC(=O)NC5=O)C6)CC4)CC3)cc2)c1 (relative stereo) [Compound 74, cis-(S)-3-(6-fluoro-5-(4-((1-(4-(7-hydroxy-3-(3-methoxy-phenyl)chroman-4-yl)phenyl)piperidin-4-yl)methyl)piperazin-1-yl)-1-oxoisoindolin-2-yl)piperidine-2,6-dione] was tested. Which DC50 did it give?
Answer: Its DC50 is 7.3 nM.

Question: With O=C1CC[C@H](N2Cc3cc(N4CCN(CC5CCN(c6ccc([C@@H]7c8ccc(O)cc8OC[C@@H]7c7ccccc7)cc6)CC5)CC4)c(F)cc3C2=O)C(=O)N1 [Compound 42, (S)-3-(6-fluoro-5-(4-((1-(4-((3S,4R)-7-hydroxy-3-phenylchroman-4-yl)phenyl)piperidin-4-yl)methyl)piperazin-1-yl)-1-oxoisoindolin-2-yl)piperidine-2,6-dione] as the compound, how does the DC50 read?
Answer: Its DC50 is 1.1 nM.

Question: How did the DC50 turn out when O=C1CC[C@H](N2Cc3cc(N4CCN(CC5CCN(c6ccc([C@@H]7c8ccc(O)cc8OC[C@@H]7c7ccccc7)cc6)CC5)CC4)ccc3C2=O)C(=O)N1 [Compound 33, (S)-3-(5-(4-((1-(4-((3S,4R)-7-hydroxy-3-phenylchroman-4-yl)phenyl)piperidin-4-yl)methyl)piperazin-1-yl)-1-oxoisoindolin-2-yl)piperidine-2,6-dione] was run?
Answer: The DC50 was 0.3 nM.

Question: For O=C1CC[C@H](N2Cc3cc(N4CCN(CC5CCN(c6ccc([C@@H]7c8ccc(O)cc8OC[C@@H]7c7ccccc7)cc6F)CC5)CC4)ccc3C2=O)C(=O)N1 [Compound 86, (S)-3-(5-(4-((1-(2-fluoro-4-((3S,4R)-7-hydroxy-3-phenylchroman-4-yl)phenyl)piperidin-4-yl)methyl)piperazin-1-yl)-1-oxoisoindolin-2-yl)piperidine-2,6-dione], which DC50 is on record?
Answer: Its DC50 is 0.5 nM.

Question: With O=C1CC[C@H](N2Cc3cc(N4CCN(CC5CCN(c6ccc(C7c8ccc(O)cc8OC[C@@H]7c7ccccc7)cc6)CC5)CC4)ccc3C2=O)C(=O)N1 (relative stereo) [Compound 32, cis-(S)-3-(5-(4-((1-(4-(7-hydroxy-3-phenylchroman-4-yl)phenyl)piperidin-4-yl)methyl)piperazin-1-yl)-1-oxoisoindolin-2-yl)piperidine-2,6-dione] as the compound, how does the DC50 read?
Answer: Its DC50 is 2.4 nM.

Question: Which DC50 does the source give for COc1cc([C@H]2COc3cc(O)ccc3[C@H]2c2ccc(N3CCC(CN4CCN(c5ccc6c(c5)CN([C@H]5CCC(=O)NC5=O)C6=O)CC4)CC3)cc2)ccc1F (relative stereo) [Compound 63, cis-(S)-3-(5-(4-((1-(4-(3-(4-fluoro-3-methoxyphenyl)-7-hydroxychroman-4-yl)phenyl)piperidin-4-yl)methyl)piperazin-1-yl)-1-oxoisoindolin-2-yl)piperidine-2,6-dione] here?
Answer: Its DC50 is 2.1 nM.

Question: With COc1ccc(C2COc3cc(O)ccc3[C@H]2c2ccc(N3CCC(CN4CCN(c5cc6c(cc5F)C(=O)N([C@H]5CCC(=O)NC5=O)C6)CC4)CC3)cc2)cc1 (relative stereo) [Compound 90, cis-(S)-3-(6-fluoro-5-(4-((1-(4-(7-hydroxy-3-(4-methoxy-phenyl)chroman-4-yl)phenyl)piperidin-4-yl)methyl)piperazin-1-yl)-1-oxoisoindolin-2-yl)piperidine-2,6-dione] as the compound, how does the DC50 read?
Answer: The DC50 was 9.6 nM.
